For the first test, the target named is T1, rabbit lens aldose reductase (Oryctolagus cuniculus, UniProt P15122).
T1 construct: aldose reductase prepared from rabbit lens; from tissue; host or cells: rabbit lens
Briefly: Inhibitory effect on rabbit lens aldose reductase. Format: biochemical.
Settings: not given
`O=C(O)Cn1c(=O)sc2cc(Cl)ccc21` [compound 12] had an IC50 of 410 nM.

The same test, now with this note: aldose reductase prepared from rabbit lens; graphically calculated from inhibitory effect at various concentrations; read-out: 50% Inhibitory concentration (IC50).
As for `O=C(O)Cn1c(=O)sc2cc(Oc3ccccc3)c(Cl)cc21` [Test Compound 1, 2-Oxo-5-chloro-6-phenoxy-3-benzothiazolineacetic acid], the IC50 is 50 nM.

Turning to `O=C(O)Cn1c(=O)sc2cc(Oc3ccccc3)ccc21` [Test Compound 3, 2-Oxo-6-phenoxy-3-benzothiazolineacetic acid], the IC50 is 690 nM.

Regarding `O=C(O)Cn1c(=O)sc2c(Cl)c(-c3ccccc3)ccc21` [Test Compound 5, 2-Oxo-6-phenyl-7-chloro-3-benzothiazolineacetic acid], the IC50 was 120 nM.

Turning to `O=C(O)Cn1c(=O)sc2cc(C3CCCCC3)c(Cl)cc21` [Test Compound 6, 2-Oxo-5-chloro-6-cyclohexyl-3-benzothiazolineacetic acid], the IC50 was 140 nM.

`O=C(O)Cn1c(=O)sc2cc(Br)c(Cl)cc21` [Test Compound 8, 2-Oxo-5-chloro-6-bromo-3-benzothiazolineacetic acid]: the IC50 was 50 nM.

With `O=C(O)Cn1c(=O)sc2ccc(Cl)cc21` [Test Compound 10, 2-Oxo-5-chloro-3-benzothiazolineacetic acid], the IC50 is 200 nM.

In the case of `O=C(O)CN1C(=O)C(=O)c2ccc(Cl)cc21` [Test Compound 13, 2,3-dioxo-6-chloro-1-indolineacetic acid], the IC50 was 300 nM.

As to `O=C(O)Cn1c(=O)sc2cc(Cl)c(Cl)cc21` [Test Compound 15, 2-Oxo-5,6-dichloro-3-benzothiazolineacetic acid], the IC50 is 38 nM.

With `O=C(O)Cn1c(=O)sc2cc(-c3ccccc3)c(Cl)cc21` [compound 2], the IC50 is 29 nM.

`O=C(O)Cn1c(=O)sc2cc(Oc3ccccc3Cl)ccc21` [compound 4]: the IC50 is 270 nM.

`O=C(O)Cn1c(=O)oc2cc(-c3ccccc3)c(Cl)cc21` [compound 7]: the IC50 was 49 nM.

Turning to `O=C(O)CN1C(=O)Cc2ccc(Cl)cc21` [compound 9], the IC50 was 270 nM.

On to `O=C(O)Cn1c(=O)oc2ccc(Cl)cc21` [compound 11], for which the IC50 is 250 nM.

For the compound `Cc1cc2c(cc1-c1ccccc1)sc(=O)n2CC(=O)O` [compound 14], the IC50 was 33 nM.

Turning to `O=C(O)Cn1c(=O)sc2cc([N+](=O)[O-])c(Cl)cc21` [compound 16], the IC50 is 120 nM.

On to `Nc1cc2sc(=O)n(CC(=O)O)c2cc1Cl` [compound 17], for which the IC50 was 100 nM.

(Values after US4370340A, “Benzothiazol-2-one-3-alkanoic acids and esters and aldose reductase inhibiting compositions thereof” (Fujisawa Pharmaceutical Co., Ltd., priority 1979, dated 1983).)
